Among the data in patent publication US20230150977A1, “PYRIDAZINONE COMPOUNDS FOR THE TREATMENT OF NEUROMUSCULAR DISEASES” (Edgewise Therapeutics, Inc., priority 2020, published 2023) are IC50 values, retold here.

Some results are limits rather than exact numbers.

In the test the target is skeletal myofibrils (Rabbit Psoas) myosin ATPase. As to the kind of experiment: Skeletal Myofibril ATPase Assay. The test is classed as biochemical. Conditions: PK/LDH coupled, absorbance at 340 nm. The protocol:
Overview: Myosin ATPase activity was assessed by using a coupled reaction system, in which ADP generated by the myosin ATPase function was coupled to the disappearance of NADH through the pyruvate kinase/lactate dehydrogenase (PK-LDH) system. Myosin ATPase activity produces ADP, which was used as a substrate for PK to produce pyruvate and regenerate ATP. The pyruvate was then used as a substrate by LDH to oxidize NADH to NAD+. The rate of the reaction was monitored through the time-dependent disappearance of NADH using absorbance at 340 nm. Inhibition of ATPase activity by the assayed compounds was indicated by a reduced rate of NADH loss, relative to vehicle-treated controls, over the experimental time window. To assess the selectivity of the assayed compounds for skeletal myofibrils, the compounds were counter-screened in cardiac myofibrils.
Materials: The following stock solutions and reagents were used in the Skeletal Myofibril ATPase Assay:
Stock Solutions of pCa buffer. Combine PIPES, CaCl2, and EGTA solutions with 70 mL of water. Adjust pH to 7.0 and bring final volume to 100 mL.
Buffer A & Buffer B. Buffers were stored on ice until use.
Skeletal Myofibril ATPase Assay Procedure: BSA, ATP, NADH, PEP, and DTT solutions were thawed at room temperature, then transferred to ice. Pellet-frozen myofibrils (approximately twice the required volume) were transferred into a sufficiently large tube and capped. Myofibrils were thawed by rolling in a water bath for approximately 15 min at room temperature and cooled on ice. Buffers A and B were prepared by adjusting volumes as necessary for required number of wells and stored on ice. 0.5 μL of the compounds to be assayed were added into wells of a 384-well plate. Buffers A and B were mixed by inversion immediately prior to use, then 25 μL of each was dispensed using a Multidrop dispenser (Buffer A first, then Buffer B). The absorbance within the wells was measured at 340 nm, using a kinetic protocol in which the wells are read every 1.5-2 min for 1 h. The reaction rate was qualitatively assessed by subtracting the minimum absorbance value from the maximum value for each well, using either the SoftMax Pro plate reader software or a spreadsheet program such as Excel. Using GraphPad Prism 8.0, the data was normalized, with 100% activity defined as the absorbance change in the 1% DMSO vehicle wells and 0% assigned to no change in absorbance over the course of the experiment. The normalized data were fit to a variable-slope four-parameter logistic model, constraining the bottom to be 0 or greater. Compounds of Table 1 to 3 were tested and results of the assay appear in Table 4 herein. A=IC50 is less than or equal to 10 μM; B=IC50 is greater than 10 μM and less than 100 μM; C=IC50 is greater than 100 μM.
As a reminder, the IC50 is the midpoint of a concentration-inhibition curve. Read a high IC50 as a need for much substance. Compound `O=c1ccc(-c2cnc(OCC(F)(F)F)nc2)nn1CCC1CCC1` [Compound 1, 2-(2-cyclobutylethyl)-6-(2-(2,2,2-trifluoroethoxy)pyrimidin-5-yl)pyridazin-3(2H)-one] gave an IC50 of at most 10 µM.
As to `O=c1ccc(-c2cnc(OCC(F)(F)F)nc2)nn1CCCc1ccccc1` [Compound 2, 2-(3-phenylpropyl)-6-(2-(2,2,2-trifluoroethoxy)pyrimidin-5-yl)pyridazin-3(2H)-one], the IC50 is at most 10 µM.
As for `CC1CC1CCn1nc(-c2cnc(OCC(F)(F)F)nc2)ccc1=O` (centres unmarked) [Compound 3, 2-(2-(2-methylcyclopropyl)ethyl)-6-(2-(2,2,2-trifluoroethoxy)pyrimidin-5-yl)pyridazin-3(2H)-one], the IC50 is at most 10 µM.
Take `O=c1ccc(-c2cnc(OCC(F)(F)F)nc2)nn1CCc1ccccc1` [Compound 4, 2-phenethyl-6-(2-(2,2,2-trifluoroethoxy)pyrimidin-5-yl)pyridazin-3(2H)-one]: the IC50 was at most 10 µM.
Take `O=c1ccc(-c2cnc(OCC(F)(F)F)nc2)nn1CCC1CC1` [Compound 5, 2-(2-cyclopropylethyl)-6-(2-(2,2,2-trifluoroethoxy)pyrimidin-5-yl)pyridazin-3(2H)-one]: the IC50 was at most 10 µM.
Under `O=c1ccc(-c2cnc(OCC(F)(F)F)nc2)nn1CCc1ccc(Cl)cc1` [Compound 6, 2-(4-chlorophenethyl)-6-(2-(2,2,2-trifluoroethoxy)pyrimidin-5-yl)pyridazin-3(2H)-one] stands at most 10 µM.
Under `O=c1ccc(-c2cnc(OCC(F)(F)F)nc2)nn1CCC12CC(C1)C2` [Compound 7, 2-(2-(bicyclo[1.1.1]pentan-1-yl)ethyl)-6-(2-(2,2,2-trifluoroethoxy)pyrimidin-5-yl)pyridazin-3(2H)-one] stands at most 10 µM; under `CCCn1nc(-c2cnc(OCC(F)(F)F)nc2)ccc1=O` [Compound 8, 2-propyl-6-(2-(2,2,2-trifluoroethoxy)pyrimidin-5-yl)pyridazin-3(2H)-one], at most 10 µM; under `O=c1ccc(-c2cnc(OCC(F)(F)F)nc2)nn1CCc1cncc(F)c1` [Compound 9, 2-(2-(5-fluoropyridin-3-yl)ethyl)-6-(2-(2,2,2-trifluoroethoxy)pyrimidin-5-yl)pyridazin-3(2H)-one], at most 10 µM.
Next, `O=c1ccc(-c2cnc(OCC(F)(F)F)nc2)nn1CCc1ccccn1` [Compound 10, 2-(2-(pyridin-2-yl)ethyl)-6-(2-(2,2,2-trifluoroethoxy)pyrimidin-5-yl)pyridazin-3(2H)-one]: at most 10 µM; `O=c1ccc(-c2ccc(OC(F)F)cc2)nn1CCc1ccc(Cl)cc1` [Compound 11, 2-(4-chlorophenethyl)-6-(4-(difluoromethoxy)phenyl)pyridazin-3(2H)-one]: at most 10 µM.
Compound `O=c1ccc(-c2ccc(OC(F)F)nc2)nn1CCc1ccc(Cl)cc1` [Compound 12, 2-(4-chlorophenethyl)-6-(6-(difluoromethoxy)pyridin-3-yl)pyridazin-3(2H)-one] came in with an IC50 of at most 10 µM.
Compound `CC(Cn1nc(-c2cnc(OCC(F)(F)F)nc2)ccc1=O)c1ccccc1` (centres unmarked) [Compound 13, 2-(2-phenylpropyl)-6-(2-(2,2,2-trifluoroethoxy)pyrimidin-5-yl)pyridazin-3(2H)-one] registered an IC50 of at most 10 µM.
Under `COc1ccc(-c2ccc(=O)n(CC3CCCCC3)n2)cc1` [Compound 14, 2-(cyclohexylmethyl)-6-(4-methoxyphenyl)pyridazin-3(2H)-one] stands at most 10 µM.
Turning to `O=c1ccc(-c2ccc(Cl)cc2)nn1CCc1ccccc1` [Compound 15, 6-(4-chlorophenyl)-2-phenethylpyridazin-3(2H)-one], the IC50 was at most 10 µM.
Turning to `COc1ccc(-c2ccc(=O)n(CCc3ccccc3)n2)cc1` [Compound 16, 6-(4-methoxyphenyl)-2-phenethylpyridazin-3(2H)-one], the IC50 is at most 10 µM.
Turning to `CC(C)(C)CCn1nc(-c2cnc(OCC(F)(F)F)nc2)ccc1=O` [Compound 17, 2-(3,3-dimethylbutyl)-6-(2-(2,2,2-trifluoroethoxy)pyrimidin-5-yl)pyridazin-3(2H)-one], the IC50 fell in the range of 10 to 100 µM.
